In ChEMBL document CHEMBL2029300, “Discovery of a Potent Retinoid X Receptor Antagonist Structurally Closely Related to RXR Agonist NEt-3IB” (ACS Med Chem Lett, 2011):
Calls of active or inactive are those of the source. The calls are words filed in the database; no cut-off is given here.

How the values were obtained:
[1] = molecular target: T1, Retinoic acid receptor RXR-alpha (Homo sapiens) (UniProt P19793); assay: (§1) Antagonist activity at RXRalpha expressed in COS1 cells assessed as inhibition of NEt-TMN-induced luciferase activity after 18 hrs by reporter gene assay relative to LGD1069; type: functional, cell-based; settings: COS-1
T1 sequence (whole entry): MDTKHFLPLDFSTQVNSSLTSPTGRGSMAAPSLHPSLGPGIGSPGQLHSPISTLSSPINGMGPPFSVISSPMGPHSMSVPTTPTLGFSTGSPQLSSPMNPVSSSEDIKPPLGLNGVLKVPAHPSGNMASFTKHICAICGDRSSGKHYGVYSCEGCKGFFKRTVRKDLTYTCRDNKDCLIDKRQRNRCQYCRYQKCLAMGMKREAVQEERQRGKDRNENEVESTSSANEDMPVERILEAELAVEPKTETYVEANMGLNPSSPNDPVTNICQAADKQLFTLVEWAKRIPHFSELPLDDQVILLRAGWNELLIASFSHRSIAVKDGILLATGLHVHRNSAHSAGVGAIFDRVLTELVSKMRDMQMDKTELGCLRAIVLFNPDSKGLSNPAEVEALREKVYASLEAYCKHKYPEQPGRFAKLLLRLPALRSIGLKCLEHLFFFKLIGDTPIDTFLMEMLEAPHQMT

[2] = molecular target: T2, Retinoic acid receptor RXR-alpha (Homo sapiens, UniProt P19793); assay: as §1; type: functional, cell-based, COS-1
T2 sequence (P19793 whole entry): T1 sequence (whole entry)

[3] = molecular target: T2, Retinoic acid receptor RXR-alpha; assay: Antagonist activity at RXRalpha expressed in COS1 cells assessed as inhibition of NEt-3IP-induced luciferase activity after 18 hrs by reporter gene assay relative to LGD1069; type: functional, cell-based, COS-1

Structure (SMILES)	Activity [1]	Kb [2] [nM]	Kb [3] [nM]
CCN(c1ccc(C(=O)O)cn1)c1cc(OCC(C)C)c(C(C)C)cc1/C=C/c1ccccc1	Active	5.89	5.5
CCN(c1ccc(C(=O)O)cn1)c1cc(OCC(C)C)c(C(C)C)cc1Nc1ccccc1	Active	–	–
CCCCCCOc1cc2c(cc1N(C)c1ncc(C(=O)O)cn1)C(C)(C)CCC2(C)C	Active	77.6	–
CCN(c1ccc(C(=O)O)cn1)c1cc(OCC(C)C)c(C(C)C)cc1-c1ccccc1	inactive	–	–
